Experimental data taken from publication PMC9202104 (BMC Biology, 2022).

Legend:
[1] = test system: ZIKV human strain PAN2015; experiment: Plaque assay, inhibition of ZIKV infection (strain PAN2015); assay type: cell-based; conditions: Zika virus, Vero C1008, Vero E6 cells
Experimental: After removal of the unbound compounds by centrifugation (after addition of 3% PEG-6000), ZIKV was incubated with Vero E6 cells in 24-well plates at 37°C for 1 h. The cells were then washed with PBS, overlaid with DMEM containing 1% carboxymethyl cellulose and 2% FBS, and cultured at 37°C for 4–5 days, followed by being stained with 0.5% crystal violet. […] Plaques in each well were calculated, and IC50 of compounds for each compound was calculated using the CalcuSyn computer program.

[2] = Cytotoxicity, Cell Counting Kit-8, Vero E6 cells; assay type: cell-based; conditions: African green monkey, CC50 Vero E6
Experimental: (§1) Briefly, compounds at 2-fold serial dilutions were added to the respective cells (2.0×10^4/well) pre-seeded in 96-well plates. The cells were cultured at 37°C in the presence of 5% CO2 for 3 days, […] incubated with CCK8 solution, followed by measurement of absorbance at 450 nm (A450 value), using a microplate reader (Infinite F200PRO, Tecan, Morrisville, NC, USA). CC50 of compounds was calculated using the CalcuSyn program.

Vero E6 cells = experiment: Cytotoxicity, Cell Counting Kit-8, Vero E6 cells; assay type: cell-based; conditions: African green monkey, 3 days
Experimental: as §1

DENV-1-V1792 = experiment: Plaque assay, inhibition of DENV-1 infection in LLC-MK2 cells; assay type: cell-based; conditions: Dengue virus, DENV1
DENV-2-V594 = experiment: Plaque assay, inhibition of DENV-2 infection in LLC-MK2 cells; assay type: cell-based; conditions: Dengue virus, DENV2
ZIKV EDIII protein = molecular target: T1, ZIKV EDIII protein (Zika virus, UniProt A0A024B7W1); experiment: SPR binding to ZIKV EDIII
T1 construct: EDIII (residues 298-409 in E protein containing a C-terminal human Fc tag); human Fc (C)
T1 sequence (A0A024B7W1 588-699): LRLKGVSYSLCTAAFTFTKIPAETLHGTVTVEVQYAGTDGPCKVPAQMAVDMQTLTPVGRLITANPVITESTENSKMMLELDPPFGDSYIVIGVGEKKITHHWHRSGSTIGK
Experimental: (GE Healthcare, Port Washington, NY, USA). Briefly, ZIKV EDIII protein or NS2B-NS3 protein was immobilized on a sensor chip (CM5) using the Amine Coupling Kit (GE Healthcare). Serially diluted ST087010 was added as analytes, and HBS-EP with 10% DMSO (10 mM HEPES, 150 mM NaCl, 3 mM EDTA, 0.05% Tween-20, 10% DMSO, pH 7.4) was used as a running buffer. Biacore BK evaluation software (version 1.1) was applied to analyze the data, and the curve was fitted with a 1:1 binding model.

[3] = test system: ZIKV human strain PAN2016; experiment: ZIKV challenge in adult Ifnar1−/− mice, tissue viral titers and immunofluorescence; assay type: in vivo; conditions: 5 dpi
Experimental: Briefly, 7–8-week-old male mice were used, and two separate experiments were performed. […] These mice were i.p. infected with ZIKV (human strain R103451, 200 PFU/mouse) and observed daily for weight changes and survival until 21 dpi. […] Five days later, these mice were sacrificed, and their tissues, including the heart, testis, eye, kidney, and brain, were collected for detection of viral titers by plaque assay, or apoptosis by immunofluorescence staining. Mice losing 20% of initial weight with severe symptoms, including hind limb weakness and paralysis, or 25% of initial weight, were humanely euthanized with an overdose isoflurane in a Bell Jar, followed by cervical dislocation.
Plaque assay was used to detect viral titers in ZIKV-infected tissues. Briefly, tissues were homogenized with cold culture medium (DMEM + 2% FBS) and then centrifuged (2000 g at 4°C for 10 min). Supernatants were serially diluted to infect Vero E6 cells in 24-well plates. ZIKV titers in tissues were measured from ~40 mg of samples; thus, the detection limit was about 25 PFU/g of tissues.
Immunofluorescence staining was carried out to detect ZIKV and caspase-3 signals in ZIKV-infected mouse tissues. Briefly, tissues were fixed in 4% formaldehyde, embedded in paraffin, and sectioned. The tissue sections were deparaffinized, fixed, and permed using the FIX and PERM Cell Permeabilization Kit (Thermo Fisher Scientific, Waltham, MA, USA). After blocking with 5% BSA, the tissue slides were incubated at 37°C 2 h with ZIKV EDIII-specific human mAb (ZV-67, 1:100, Absolute Antibody, Boston, MA, USA), or rabbit anti-active caspase-3 antibody (1:100, Abcam). The slides were washed with PBS and incubated for 30 min with anti-human FITC antibody (1:100, for ZIKV), or anti-rabbit Alexa Fluor 647 antibody (1:100, for caspase-3). The slides were then counterstained for nuclei, using DAPI (300 nM, Thermo Fisher Scientific, Waltham, MA, USA) for 5 min, and mounted in VectaMount Permanent Mounting Medium (Vector Laboratories, CA, USA). The slides were analyzed using a confocal microscope (Zeiss LSM 880) and ZEN software, and fluorescent signals were quantified by ImageJ software.

SMILES: Cc1cc2c(C(C)C)c(O)c(O)c(/C=N/n3c(=O)[nH][nH]c3=O)c2c(O)c1-c1c(C)cc2c(C(C)C)c(O)c(O)c(/C=N/n3c(=O)[nH][nH]c3=O)c2c1O [ST087010]
- IC50 [1]: 3.5 µM
- CC50 at 3 days [2]: 49.6 µM
- CC50 (Vero E6 cells): 49.6 ± 1.83 µM
- IC50 (DENV-1-V1792): 3.01 ± 0.11 µM
- IC50 (DENV-2-V594): 3.19 ± 0.01 µM
- Kd (ZIKV EDIII protein): 4.95 µM
- Viral titers in the heart, testis, eye, kidney, and brain ([3]; 20 mg/kg i.p., ZIKV PAN2016 200 PFU, compared to gossypol or DMSO-treated mice): significantly reduced
- ZIKV+ signals in eye and testis tissues ([3]; immunofluorescence): undetectable
- Caspase-3 staining in eye and testis tissues ([3]; immunofluorescence, compared to DMSO): undetectable, or diminished
